Results reported in paper PMC8573170 (The Journal of Biological Chemistry, 2021).
“Also recorded” adds a separate entry of the source. Blank lines part the entries; values can stand above or below the molecule they belong to.

Legend:
thrombin = thrombin (Homo sapiens, UniProt P00734); test: Cleavage of peptides by thrombin in solution, measured by mass spectrometry; assay type: in vitro ADME; conditions: 25 μM peptide, 1 μM thrombin (25:1); 2 h at 37 °C; 25 mM Tris-HCl pH 8.0, 150 mM NaCl; ESI-MS
Experimental: To detect cleavage of XC-42 and XC-43 by thrombin in solution, we incubated each peptide separately at a concentration of 25 μM in the presence of thrombin (1 μM) in 25 mM Tris-HCl pH 8.0 containing 150 mM NaCl for 2 h at 37 °C. Reactions were stopped by adjusting the pH to 2.0 with the addition of TFA. A Q Exactive plus (Thermo Fisher Scientific) mass spectrometer was used to carry out ESI-MS experiments. The instrument was operated at a resolution of 280k, spray voltage of 3.5 kV, and capillary temperature of 250 °C. Samples were desalted by C18 Zip-tip (Millipore) and dissolved in 200 μl of reconstitution buffer (50% acetonitrile, 49% water, 1% TFA). Samples were introduced using a syringe pump (Thermo Fisher Scientific) with a flow rate of 5 μl/min. Xtract was used to deconvolute the raw data.

α-thrombin [1] = target: T1, α-thrombin (Homo sapiens, UniProt P00734); test: SPR, peptides passed over immobilized thrombin; assay type: binding; conditions: thrombin amine-coupled on CM5 chip; peptides 0-50 nM; single cycle; compared with biotinylated XC-43 surface
Experimental: Evaluation of binding kinetics by SPR was performed using a Biacore T200 instrument. Synthetic XC-43 containing covalently linked biotin at the N-terminal amino group and the ε-amino group of Lys 1 was bound to a surface of immobilized neutravidin on a CM-5 chip. After conditioning, human α-thrombin was passed over the surface, and kinetic data were collected in single cycle mode using a running buffer of 10 mM HEPES pH 7.4, 150 mM NaCl (HBS). The data were fit to a 1:1 Langmuir binding model. Binding was also analyzed after immobilization of α-thrombin on a CM-5 chip using amine coupling methodology. XC-42 and XC-43 were passed over the surface, and data were collected in the single cycle mode using HBS as a running buffer. The data were fit to a 1:1 binding model as described above.
Figure S2: Surface pl asmon resonanc e in the single cycle mode of (A) XC -42 or (B) XC-43 binding to thrombin immobilized on a CM5 chip surface. Exp erimental data are shown as a solid grey line while the calculated fit is shown as a dashed line (C) Th e kinetic param eters w ere estimated by fitting a 1:1 binding model. Peptide concentrations for each experiment were, 0 nM, 6.25 nM, 12.5 nM, 25 nM, 50 nM.
(§1) (1 picture or pasted object on this page, not shown here)

α-thrombin [2] = target: T1, α-thrombin; test: Kinetic assay of thrombin-catalyzed hydrolysis of S-2238 (Morrison equation); assay type: biochemical; design: Kinetic assays were performed using human α-thrombin (Enzyme Research Laboratories); purchased Enzyme Research Laboratories; conditions: summary statement in the abstract; fast, tight-binding inhibitor; read-out: dissociation constant for thrombin (abstract)
Experimental: All reactions were performed at 30 °C. Kinetic assays were performed using human α-thrombin (Enzyme Research Laboratories) and chromogenic substrate S-2238 (Diapharma) using a Thermomax micro plate reader (Molecular Devices). Reactions were performed in 100 μl of TBS buffer (10 mM Tris, 0.15 M NaCl, pH 7.4) containing 0.01% Tween-20. XC-43 (0–3.2 nM) or 0 to 15 pairs of X.cheopis salivary glands were incubated with human α-thrombin (0.2 nM) at 30 °C for 5 min followed by addition of S-2238 (50, 100, 200, 400, and 600 μM). Reactions were followed for 30 min. The inhibitory constants were determined by fitting the nonlinear regression model according to the Morrison’s equation ([43]) using the GraphPad Prism software (GraphPad Software, Inc).

Wistar rats [3] = test: Tail bleeding assay; assay type: in vivo; conditions: rat; for increased tail bleeding vs PBS-injected animals: 30 min posttreatment, absorbance 540 nm
Experimental: The tail bleeding assay was performed with 24 animals kept at 37 °C under general anesthesia with isoflurane vaporized in 100% oxygen at a dose of 5% for induction and 2% for maintenance (flow rate of 0.5 l/min). These animals were randomly distributed into four groups (n = 6 per group) and injected intraperitoneally (300 μl) with: (i) PBS; (ii) heparin (50 μg/kg); (iii) XC-43 (0.5 mg/kg); or (iv) XC-43 (1 mg/kg). After 30 min posttreatment, a medium depth incision was performed at 3 mm from the tip of the animals' tail; the tail was submerged in a test tube containing saline solution (4 ml) and maintained for 30 min. Then, samples from saline solution were appropriately diluted and the absorbance at 540 nm was determined spectrophotometrically.

α-thrombin [4] = target: T1, α-thrombin; test: Isothermal titration calorimetry; design: Kinetic assays were performed using human α-thrombin (Enzyme Research Laboratories); purchased Enzyme Research Laboratories; conditions: using a maximum c value of 500; single binding site; read-out: KD, ITC bound
Experimental: Isothermal titration calorimetric experiments were performed with a Microcal VP-ITC instrument at 30 °C. Human α-thrombin and XC-43 were dissolved in PBS, pH 7.4 at concentrations of 1 μM and 10 μM, respectively. XC-43 was added as 10-μl injections to the protein sample contained in the calorimeter cell. Calculated injection enthalpies were fit to a single-site binding model in the Microcal data evaluation software.
Figure S3: Analysis of XC-43 binding with thrombin using isothermal titration calorimetry. XC-43 (10 µM) was added to a solution of thrombin (1 µM) in a series of 10 µl injections. Heats were record ed on a VP -IT C MicroCalorimeter and the data fitted using a singl e binding site model. The high affinity makes the magnitude […]
association constant (K) must be ≥ 5 × 10 8 M −1 ( KD ≤ 2 nM ) with a single peptide binding site per thrombin […]
as §1

α-thrombin [5] = test: XC-43-thrombin complex assembled in 10 mM HEPES pH 7.4, crystallized in 0.2 M magnesium acetate, 9% PEG 8000 (measured pH ∼ 7); conditions: human, room temperature
α-thrombin [6] = test: thrombin (1 μM) in 25 mM Tris-HCl pH 8.0 containing 150 mM NaCl; conditions: human, 37 °C, up to 2 h
Wistar rats [7] = test: Ex vivo aPTT of plasma from treated rats; assay type: in vivo; conditions: rat; heparin 50 μg/kg intraperitoneal; 2 and 12 h posttreatment
Experimental: A total number of 24 animals were randomly distributed into four groups (n= 6 per group) and injected intraperitoneally (300 μl) with: (i) PBS; (ii) heparin (50 μg/kg); (iii) XC-43 (0.5 mg/kg); or (iv) XC-43 (1.0 mg/kg). Animals were anesthetized with isoflurane (5% for induction; 2% for maintenance) and blood samples were obtained at 0, 2, 12, and 24 h posttreatment in 1:10 (v/v) 3.8% trisodium citrate. The PPP was obtained by blood centrifugation (1500g for 10 min) and the aPTT evaluated using the APTT ellagic kit (Wiener Lab). Clot formation was monitored at 650 nm using a SpectraMax M3 (Molecular Devices).

Molecule: CC[C@H](C)[C@H](NC(=O)[C@@H]1CCCN1C(=O)[C@H](CCC(=O)O)NC(=O)[C@H](CCSC)NC(=O)CNC(=O)[C@H](CC(N)=O)NC(=O)CNC(=O)CNC(=O)[C@H](CCC(=O)O)NC(=O)CNC(=O)[C@H](CCCNC(=N)N)NC(=O)[C@H](CCC(N)=O)NC(=O)[C@H](Cc1ccc(O)cc1)NC(=O)[C@H](CC(C)C)NC(=O)[C@H](CCCCN)NC(=O)[C@@H]1CCCN1C(=O)[C@H](CCC(N)=O)NC(=O)[C@H](C)NC(=O)[C@@H](NC(=O)[C@H](CCC(=O)O)NC(=O)[C@H](C)NC(=O)[C@H](CCC(=O)O)NC(=O)[C@@H](NC(=O)[C@H](CCC(=O)O)NC(=O)[C@H](CS)NC(=O)[C@H](CCC(=O)O)NC(=O)[C@H](CC(=O)O)NC(=O)[C@H](CC(C)C)NC(=O)[C@H](CC(N)=O)NC(=O)[C@H](CO)NC(=O)[C@H](CCC(N)=O)NC(=O)[C@H](C)NC(=O)[C@@H](NC(=O)[C@H](CCC(=O)O)NC(=O)[C@H](C)NC(=O)[C@H](CCC(=O)O)NC(=O)[C@@H](NC(=O)[C@@H]1CCCN1C(=O)[C@@H](N)CCCCN)C(C)C)C(C)C)C(C)C)C(C)C)C(=O)N1CCC[C@H]1C(=O)N[C@@H](CCC(=O)O)C(=O)N[C@@H](CC(=O)O)C(=O)N[C@H](C(=O)N[C@@H](CC(C)C)C(=O)N[C@@H](CC(N)=O)C(=O)N[C@@H](CCC(=O)O)C(=O)N[C@@H](C)C(=O)N[C@@H](CC(C)C)C(=O)N[C@@H](CC(N)=O)C(=O)N[C@@H](C)C(=O)O)C(C)C [XC-42]
- cleavage by thrombin in solution (in words) (thrombin): majority of the peptide was uncleaved; also recorded: cleaved to a relatively small degree
- dissociation constants on immobilized thrombin, SPR (in words) (α-thrombin [1]): elevated dissociation constants

Molecule: CC[C@H](C)[C@H](NC(=O)[C@@H]1CCCN1C(=O)[C@H](CCC(=O)O)NC(=O)[C@H](CCSC)NC(=O)CNC(=O)[C@H](CC(N)=O)NC(=O)CNC(=O)CNC(=O)[C@H](CCC(=O)O)NC(=O)CNC(=O)[C@H](CCCNC(=N)N)NC(=O)[C@H](CCC(N)=O)NC(=O)[C@H](Cc1ccc(O)cc1)NC(=O)[C@H](CC(C)C)NC(=O)[C@H](CCCCN)NC(=O)[C@@H]1CCCN1C(=O)[C@H](CCC(N)=O)NC(=O)[C@H](C)NC(=O)[C@@H](NC(=O)[C@H](CCC(=O)O)NC(=O)[C@H](C)NC(=O)[C@H](CCC(=O)O)NC(=O)[C@@H](NC(=O)[C@@H]1CCCN1C(=O)[C@@H](N)CCCCN)C(C)C)C(C)C)C(=O)N1CCC[C@H]1C(=O)N[C@@H](CCC(=O)O)C(=O)N[C@@H](CC(=O)O)C(=O)N[C@H](C(=O)N[C@@H](CC(C)C)C(=O)N[C@@H](CC(N)=O)C(=O)N[C@@H](CCC(=O)O)C(=O)N[C@@H](C)C(=O)N[C@@H](CC(C)C)C(=O)N[C@@H](CC(N)=O)C(=O)N[C@@H](C)C(=O)O)C(C)C [XC-43]
- cleavage by thrombin in solution (in words) (thrombin): majority of the peptide was uncleaved; also recorded: largely intact; also recorded: cleaved to a relatively small degree
- cleavage fragment ion intensity relative to that of the uncleaved peptide (thrombin): less than 15%
- Kd (α-thrombin [2]): < 0.01 nM
- dissociation constants on immobilized thrombin, SPR (in words) (α-thrombin [1]): elevated dissociation constants
- increased tail bleeding vs PBS-injected animals (Wistar rats [3]; 0.5 mg/kg intraperitoneal): 3.2 fold
- increased tail bleeding vs PBS-injected animals (Wistar rats [3]; 1 mg/kg intraperitoneal): 7.6 fold
- increased tail bleeding vs heparin-treated animals (Wistar rats [3]; 1 mg/kg intraperitoneal, heparin 50 μg/kg): 2.3 fold
- Kd (α-thrombin [4]): ≤ 2 nM

- not cleaved (α-thrombin [5]): no evidence of even partial cleavage
Molecule: KPVEAEVAQPKLYQRGEGGNGMEPIPEDVLNEALNA

- fragment found (α-thrombin [6]): LYQRGEGGNGMEPIPEDVLNEALNA
Molecule: KPVEAEVAQSNLDECEVEAEVAQPKLYQRGEGGNGMEPIPEDVLNEALNA

Molecule: heparin
- increase of ex vivo aPTT in relation to PBS-treated animals (Wistar rats [7]): twofold
